Measurements taken from US20220264878A1, “HERBICIDAL COMPOSITION CONTAINING R-TYPE PYRIDYLOXY CARBOXYLIC ACID DERIVATIVE AND USE THEREOF” (Qingdao Kingagroot Chemical Compound Co., Ltd., priority 2019, published 2022).

Tests used:
Assay type in all cases: in vivo
Veronica didyma = test: Post-emergence foliage spray, pot culture, fresh weight inhibition (Tables 151-206; 20 days)
Protocol: (§1) Table 151-206: Digitaria sanguinalis, Amaranthus retroflexus, Conyza Canadensis, Capsella bursa-pastoris, Eleusine indica were collected in Huangdao of Shandong Province, Sinapis arvensis were collected in Sixian of Anhui Province, Alopecurus japonicus were collected in Tianchang of Anhui Province, Veronica didyma were collected in Siyang of Jiangsu Province.
(§2) The above weeds were cultivated by a pot culture method. […] Full and uniform weed seeds were selected, soaked in warm water at 25° C. for 6 hours, and germinated in a 28° C. biochemical incubator (darkness). The weed seeds that had just germinatedwere evenly placed on the surface of the soil and then covered with 0.5-1 cm soil according to the sizes of seeds.
(§3) The culture was carried out in a controllable sunlight greenhouse at 20 to 30° C., in natural light, and relative humidity of 57% to 72%.
(§4) The technical materials were all dissolved in acetone, and diluted with an aqueous solution containing 0.1% emulsifier Tween-80. The dilution is performed as required.
(§5) A ratio of the active ingredient A to the active ingredient B and amounts thereof in each group depends on the characteristics and toxicity of the two agents, as well as the main application purpose of a corresponding formulation. Based on the pre-tests in this study, the dosage of the active ingredient A and B applied alone and in combination were shown in the tables. Water containing the solvent and emulsifier same with the above groups but free of the agents was used as a blank control.
(§6) Table 1-48, 51-98, 101-148, 151-206: […] per treatment, that is, a total of 60 weeds were treated in one treatment.
(§7) Table 151-206: The agents were used for only once in the experiment. In the stage of weeds with 3˜4 leaves, the weeds were thinned out to maintain 15 weeds per pot and 45 weeds for each treatment, then continued to be cultured to 4˜5 leaves stage of grassy weeds, 5˜6 leaves stage of broadleaf weeds, and treated.
(§8) The well-cultured weeds were evenly placed on a platform with an area of 0.5 m^2, and a solution of agents was sprayed on the stems and leaves thereof by the 3WP-2000-type walking spray tower at a dosage of 450 kg/ha and at a spray pressure of 0.3 MPa. After all the solution was sprayed, the valve was closed. After 30 seconds, the door of the spray tower was opened, and the nutritional bowl was taken out. Then the valve was opened, and the spray tube was cleaned by spraying 50 ml of water.
(§9) A pot-culture method was employed. For the cultivation of weeds, please refer to the Section 1.1), and “Pesticide guidelines for laboratory bioactivity tests—herbicides”. As to a method for applying agents, please refer to the section 2.3.2), that is, a foliage treatment was employed. After the treatment, the weeds were routinely cultured in a greenhouse.
(§10) A method for investigating absolute number was employed, wherein whole seedlings of survival weeds were cut off with a blade along the soil surface, and the fresh weight of the weeds was weighed with an analytical balance. For dead weeds, the fresh weight thereof was zero.
(§11) Table 151-206: The investigation was performed after 20 days of the treatment for only once.
(§12) Theoretical fresh weight inhibition rate of a combination of two active ingredients in each group was calculated by the Gowing method (E0=X+Y−X*Y/100), and then compared with an actually measured inhibition rate (E), thereby effect of the combination (hereafter referred to as combined effect) on weeds was evaluated: the value of E-E0, which was greater than 10%, corresponded to a synergistic effect, the value of E-E0, which was less than −10%, corresponded to an antagonistic effect, and the value of E-E0, which was from −10% to 10%, corresponded to an additional effect.

Acalypha australis = test: Post-emergence foliage spray, pot culture, fresh weight inhibition (Tables 1-48, 51-98, 101-148; 24 days)
Method in brief: (§13)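 Greenhouse pot plants (20–30 °C, natural light, 57–72% RH) were sprayed once on foliage at 450 kg/ha and 0.3 MPa, at the 5–6-leaf (grass) or 6–7-leaf (broadleaf) stage. Compounds were in acetone diluted with 0.1% Tween-80 water. Surviving shoots were weighed at 24 days; dead plants counted as zero.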

Amaranthus retroflexus = test: as above
Method in brief: as §13

Chenopodium album = test: as above; details: Table 96
Method in brief: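 Pot-grown weeds were thinned to 15 per pot (45 per treatment) and sprayed on foliage at the 5–6-leaf stage for grasses or the 6–7-leaf stage for broadleaves. Agents were dissolved in acetone with 0.1% Tween-80 and applied at 450 kg/ha spray volume and 0.3 MPa. Plants were then kept in a greenhouse. Above-ground fresh weight of survivors, with dead plants counted as zero, gave inhibition versus a solvent/emulsifier blank.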

Solanum nigrum = test: as above
Method in brief: as §13

[1] = system: Veronica persica^2 (collected in Zhumadian of Henan Province); test: as above; details: Table 88
Method in brief: as §13

Conyza Canadensis = test: Post-emergence foliage spray, pot culture, fresh weight inhibition (Tables 151-206; 20 days)
Protocol: as §1, §2, §3, §4, §5, §6, §7, §8, §9, §10, §11, §12

[2] = B alone 75 g a.i./ha, 20 days after treatment
[3] = B alone 150 g a.i./ha, 20 days after treatment
[4] = B alone 300 g a.i./ha, 20 days after treatment
[5] = B alone 600 g a.i./ha, 20 days after treatment

c1cc[n+]2c(c1)-c1cccc[n+]1CC2 [diquat Dibromide monohydrate]
Control effect (%) of B applied alone in corresponding dose (Veronica didyma; B 75 g a.i./ha, 20 days): 5.5% | Control effect (%) of B applied alone in corresponding dose (Veronica didyma; B 150 g a.i./ha, 20 days): 12.6% | Control effect (%) of B applied alone in corresponding dose (Veronica didyma; B 300 g a.i./ha, 20 days): 41.3% | Control effect (%) of B applied alone in corresponding dose (Veronica didyma; B 600 g a.i./ha, 20 days): 80.4% | Control effect (%) of B applied alone in corresponding dose (Veronica didyma; [2]): 5.5% | Control effect (%) of B applied alone in corresponding dose (Veronica didyma; [3]): 12.6% | Control effect (%) of B applied alone in corresponding dose (Veronica didyma; [4]): 41.3% | Control effect (%) of B applied alone in corresponding dose (Veronica didyma; [5]): 80.4%

C#CCN1C(=O)COc2cc(F)c(N3C(=O)C4=C(CCCC4)C3=O)cc21 [flumioxazin]
Control effect (%) of B applied alone in corresponding dose (Acalypha australis; B 7.5 g a.i./ha): 6.9% | Control effect (%) of B applied alone in corresponding dose (Acalypha australis; B 15 g a.i./ha): 13.7% | Control effect (%) of B applied alone in corresponding dose (Acalypha australis; B 30 g a.i./ha): 39.0% | Control effect (%) of B applied alone in corresponding dose (Acalypha australis; B 60 g a.i./ha): 79.3% | Control effect (%) of B applied alone in corresponding dose (Amaranthus retroflexus; flumioxazin 7.5 g a.i./ha): 5.5% | Control effect (%) of B applied alone in corresponding dose (Amaranthus retroflexus; flumioxazin 15 g a.i./ha): 12.4% | Control effect (%) of B applied alone in corresponding dose (Amaranthus retroflexus; flumioxazin 30 g a.i./ha): 37.4% | Control effect (%) of B applied alone in corresponding dose (Amaranthus retroflexus; flumioxazin 60 g a.i./ha): 78.9% | Control effect (%) of B applied alone in corresponding dose (Chenopodium album; 7.5 g a.i./ha): 3.4% | Control effect (%) of B applied alone in corresponding dose (Chenopodium album; 15 g a.i./ha): 12.8% | Control effect (%) of B applied alone in corresponding dose (Chenopodium album; 30 g a.i./ha): 37.3% | Control effect (%) of B applied alone in corresponding dose (Chenopodium album; 60 g a.i./ha): 78.8%

O=C1C(Cl)C(CCl)CN1c1cccc(C(F)(F)F)c1 (stereo not drawn) [flurochloridone]
Control effect (%) of B applied alone in corresponding dose (Solanum nigrum; B 75 g a.i./ha): 5.5% | Control effect (%) of B applied alone in corresponding dose (Solanum nigrum; B 150 g a.i./ha): 13.7% | Control effect (%) of B applied alone in corresponding dose (Solanum nigrum; B 300 g a.i./ha): 45.8% | Control effect (%) of B applied alone in corresponding dose (Solanum nigrum; B 600 g a.i./ha): 79.7% | Control effect (%) of B applied alone in corresponding dose ([1]; 75 g a.i./ha): 2.1% | Control effect (%) of B applied alone in corresponding dose ([1]; 150 g a.i./ha): 12.3% | Control effect (%) of B applied alone in corresponding dose ([1]; 300 g a.i./ha): 44.5% | Control effect (%) of B applied alone in corresponding dose ([1]; 600 g a.i./ha): 79.6%

C[n+]1ccc(-c2cc[n+](C)cc2)cc1 [paraquat dichloride]
Control effect (%) of B applied alone in corresponding dose (Conyza Canadensis; B 75 g a.i./ha, 20 days): 3.2% | Control effect (%) of B applied alone in corresponding dose (Conyza Canadensis; B 150 g a.i./ha, 20 days): 17.2% | Control effect (%) of B applied alone in corresponding dose (Conyza Canadensis; B 300 g a.i./ha, 20 days): 47.9% | Control effect (%) of B applied alone in corresponding dose (Conyza Canadensis; B 600 g a.i./ha, 20 days): 75.2% | Control effect (%) of B applied alone in corresponding dose (Conyza Canadensis; [2]): 3.2% | Control effect (%) of B applied alone in corresponding dose (Conyza Canadensis; [3]): 17.2% | Control effect (%) of B applied alone in corresponding dose (Conyza Canadensis; [4]): 47.9% | Control effect (%) of B applied alone in corresponding dose (Conyza Canadensis; [5]): 75.2%
